Key:
[1] = tested on: Lamina I/II spinal cord neurons; assay: Lamina assay, current-clamp recordings in spinal cord slices; format: cell-based, rat; conditions: Lamina I and II neurons
Description: Male Wistar rats (P6 to P9 for voltage-clamp and P15 to P18 for current-clamp recordings) were anaesthetized through intraperitoneal injection of Inactin (Sigma). The spinal cord was then rapidly dissected out and placed in an ice-cold solution protective sucrose solution containing (in mM): 50 sucrose, 92 NaCl, 15 D-Glucose, 26 NaHCO3, 5 KCl, 1.25 NaH2PO4, 0.5 CaCl2, 7 MgSO4, 1 kynurenic acid, and bubbled with 5% CO2/95% O2. The meninges, dura, and dorsal and ventral roots were then removed from the lumbar region of the spinal cord under a dissecting microscope. The “cleaned” lumbar region of the spinal cord was glued to the vibratome stage and immediately immersed in ice cold, bubbled, sucrose solution. For current-clamp recordings, 300 to 350 μm parasagittal slices were cut to preserve the dendritic arbour of lamina I neurons, while 350 to 400 μm transverse slices were prepared for voltage-clamped […] channel recordings. Slices were allowed to recover for 1 hour at 35° C. in Ringer solution containing (in mM): 125 NaCl, 20 D-Glucose, 26 NaHCO3, 3 KCl, 1.25 NaH2PO4, 2 CaCl2, 1 MgCl2, 1 kynurenic acid, 0.1 picrotoxin, bubbled with 5% CO2/95% O2. The slice recovery chamber was then returned to room temperature (20 to 22° C.) and all recordings were performed at this temperature.
Neurons were visualized using IR-DIC optics (Zeiss Axioskop 2 FS plus, Gottingen, Germany), and neurons from lamina I and the outer layer of lamina II were selected based on their location relative to the substantia gelatinosa layer. Neurons were patch-clamped using borosilicate glass patch pipettes with resistances of […] Current-clamp recordings of lamina I/II neurons in the intact slice, the external recording solution was the above Ringer solution, while the internal patch pipette solution contained (in mM): 140 KGluconate, 4 NaCl, 10 HEPES, 1 EGTA, 0.5 MgCl2, 4 MgATP, 0.5 Na2GTP, adjusted to pH 7.2 with 5 M KOH and to 290 mOsm with D-Mannitol (if necessary). […]

α1H (CaV 3.2) = target: T1, α1H (CaV 3.2) (Homo sapiens, UniProt O95180); assay: T-type calcium channel block, whole cell patch clamp; format: cell-based; conditions: HEK cells, mainly non-inactivated protocol; values above 10,000 nM represented as 10000
T1 construct: expressed in transfected cells; host or cells: HEK 293
Summary of the method: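 HEK293 cells stably expressing human T-type channels, whole-cell patch clamp; compounds in external solution with 0.1-0.01% DMSO, applied by gravity. Mainly non-inactivating protocol: holding −110 mV, 1 s pre-pulse −100 mV, 50 ms test pulse −40 mV (inactivated protocol uses ~−85 mV pre-pulse); IC50 reported.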

T1 sequence (O95180 whole entry): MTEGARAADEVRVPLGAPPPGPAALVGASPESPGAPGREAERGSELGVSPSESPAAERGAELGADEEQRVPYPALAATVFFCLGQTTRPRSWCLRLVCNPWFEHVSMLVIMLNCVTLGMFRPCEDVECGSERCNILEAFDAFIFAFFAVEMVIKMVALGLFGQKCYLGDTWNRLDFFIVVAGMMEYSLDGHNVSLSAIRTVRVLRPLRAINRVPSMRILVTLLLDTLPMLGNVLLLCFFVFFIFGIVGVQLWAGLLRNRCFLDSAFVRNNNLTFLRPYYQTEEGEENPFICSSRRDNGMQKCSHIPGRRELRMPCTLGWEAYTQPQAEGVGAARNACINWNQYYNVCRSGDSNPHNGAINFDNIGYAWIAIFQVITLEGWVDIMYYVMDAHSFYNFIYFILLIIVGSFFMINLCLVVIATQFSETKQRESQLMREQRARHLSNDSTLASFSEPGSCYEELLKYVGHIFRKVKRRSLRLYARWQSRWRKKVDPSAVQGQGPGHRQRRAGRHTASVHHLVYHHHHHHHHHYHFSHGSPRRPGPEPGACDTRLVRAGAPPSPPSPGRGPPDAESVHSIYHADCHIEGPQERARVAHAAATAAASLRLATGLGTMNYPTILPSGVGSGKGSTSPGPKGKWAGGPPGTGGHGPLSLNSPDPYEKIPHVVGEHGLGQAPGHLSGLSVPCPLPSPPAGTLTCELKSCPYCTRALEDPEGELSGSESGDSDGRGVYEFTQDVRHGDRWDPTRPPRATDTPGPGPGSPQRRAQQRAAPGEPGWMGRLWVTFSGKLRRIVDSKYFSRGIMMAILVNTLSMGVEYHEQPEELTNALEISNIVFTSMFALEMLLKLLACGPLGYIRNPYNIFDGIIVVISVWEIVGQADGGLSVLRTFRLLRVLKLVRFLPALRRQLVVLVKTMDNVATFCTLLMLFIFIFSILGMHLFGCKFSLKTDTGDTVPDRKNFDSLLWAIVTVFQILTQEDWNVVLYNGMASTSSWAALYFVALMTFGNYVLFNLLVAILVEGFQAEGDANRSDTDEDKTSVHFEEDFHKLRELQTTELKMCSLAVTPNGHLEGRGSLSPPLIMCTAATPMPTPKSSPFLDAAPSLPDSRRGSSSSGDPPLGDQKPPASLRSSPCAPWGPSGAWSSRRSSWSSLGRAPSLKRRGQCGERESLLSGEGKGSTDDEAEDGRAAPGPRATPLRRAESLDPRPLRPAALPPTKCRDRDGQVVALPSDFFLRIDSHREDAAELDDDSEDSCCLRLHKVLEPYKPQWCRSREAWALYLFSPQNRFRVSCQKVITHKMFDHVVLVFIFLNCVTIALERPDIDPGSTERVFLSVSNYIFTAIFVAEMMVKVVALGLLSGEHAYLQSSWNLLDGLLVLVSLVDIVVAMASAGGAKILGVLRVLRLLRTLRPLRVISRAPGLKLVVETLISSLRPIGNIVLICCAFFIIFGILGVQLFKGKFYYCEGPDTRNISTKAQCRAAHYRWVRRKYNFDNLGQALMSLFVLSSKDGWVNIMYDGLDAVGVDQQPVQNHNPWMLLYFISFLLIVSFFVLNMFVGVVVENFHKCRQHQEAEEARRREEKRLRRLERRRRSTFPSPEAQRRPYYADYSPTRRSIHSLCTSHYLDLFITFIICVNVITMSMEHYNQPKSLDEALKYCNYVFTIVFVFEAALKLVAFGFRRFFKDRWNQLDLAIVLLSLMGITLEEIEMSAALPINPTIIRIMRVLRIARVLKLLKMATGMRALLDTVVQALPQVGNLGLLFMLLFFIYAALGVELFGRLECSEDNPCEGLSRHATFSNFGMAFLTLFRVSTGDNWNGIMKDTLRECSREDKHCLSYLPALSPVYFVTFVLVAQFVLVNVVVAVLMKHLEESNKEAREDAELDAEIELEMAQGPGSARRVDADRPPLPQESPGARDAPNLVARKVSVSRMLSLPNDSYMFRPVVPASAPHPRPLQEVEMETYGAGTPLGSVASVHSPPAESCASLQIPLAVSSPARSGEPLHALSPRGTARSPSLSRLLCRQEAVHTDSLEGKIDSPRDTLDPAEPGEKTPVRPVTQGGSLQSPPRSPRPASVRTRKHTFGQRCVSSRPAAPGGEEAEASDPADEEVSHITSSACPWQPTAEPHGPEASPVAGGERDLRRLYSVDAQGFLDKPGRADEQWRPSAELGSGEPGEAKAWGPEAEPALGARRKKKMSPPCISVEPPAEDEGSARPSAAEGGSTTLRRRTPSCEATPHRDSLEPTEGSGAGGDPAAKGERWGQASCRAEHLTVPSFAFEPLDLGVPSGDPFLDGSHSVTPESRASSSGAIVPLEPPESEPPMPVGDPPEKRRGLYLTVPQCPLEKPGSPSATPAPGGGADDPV

Row | Molecule | % Spike Change Mean [1] | IC50 (α1H (CaV 3.2))
1 | N-(3,5- bis(trifluoromethyl) phenyl)-2-(1- (piperidine-3- carbonyl)piperidin-4- yl)acetamide [Compound 2] | −57.2% | 350 nM
2 | N[C@@H]1CCCC[C@H]1C(=O)N1CCC(CC(=O)Nc2cc(C(F)(F)F)cc(C(F)(F)F)c2)CC1 (racemic) [Compound 3, trans-2-(1-(2-aminocyclohexanecarbonyl)piperidin-4-yl)-N-(3,5-bis(trifluoromethyl)phenyl)acetamide] | −51.1% | 60 nM

Source: patent US20120220564A1, “SELECTIVE CALCIUM CHANNEL MODULATORS” (Zalicus Pharmaceuticals Ltd., priority 2009, published 2012)
